Source: US20220023399A1, “BLOOD COMPONENT POTENTIATION OF LYTIC PROTEIN ANTI-BACTERIAL ACTIVITY AND METHODS AND USES THEREOF” (priority 2017, published 2022)
Converted amounts (≈) assume the structure as drawn. Read-outs that look alike come from different tables or passages of the source. No end group written: not given here.

How the values were obtained:
[1] = test system: staphylococci (strain not given); assay: Checkerboard analysis of PlySs2/CF-301 with AMPs, antimicrobial proteins and albumins in heat-inactivated human serum; type: cell-based, S. aureus; details: in combination with PlySs2/CF-301
[2] = test system: methicillin-resistant S. aureus (MRSA) strain MW2; assay: Time-kill assay in blood matrices and MHB; type: cell-based; details: strain MW2; human blood matrices vs MHB
MRSA strain MW2 [3] = assay: Checkerboard assay in human serum and MHB; type: cell-based, S. aureus; details: in combination with PlySs2 (CF-301)
S. aureus strain MW2 = assay: Synergy time-kill assay; type: cell-based; details: human serum
[4] = test system: S. aureus (strain not given); assay: MIC analysis of various lysins, chimeric lysins and antibiotics in MHB and human serum; type: cell-based; details: Table 2; for Fold decrease in MIC: human serum vs MHB; for MIC: Staphylococcus aureus
[5] = test system: S. aureus (strain not given); assay: as above; type: cell-based; details: for Minimal inhibitory concentration, MHB / Fold decrease in MIC / Minimal inhibitory concentration, Human serum: Table 14 (Example 2); for Fold decrease in MIC: human serum vs MHB; for MIC: Staphylococcus aureus
Description: To further evaluate the binding domain relevance to the serum component effect, various chimerics were constructed by replacing or swapping out one binding domain for another. Chimeric lysins having the Sal1 CHAP catalytic domain with ClyS binding domain, PlySs2 (CF-301) binding domain, or lysostaphin binding domain were assayed for MIC using MHB versus human serum. the results are depicted below in TABLE 14.

MRSA strain MW2 [6] = assay: Rabbit infective endocarditis model; type: in vivo, New Zealand White Rabbits; details: rabbit IE model; daptomycin 4 mg/kg IV once daily for 4 days

LL-37 [reference compound]
ΣFICavg [1]: 1

Histatin-5 [reference compound]
ΣFICavg [1]: ≥1.16

HNP-1: Human AMP [reference compound]
ΣFICavg [1]: 1

β-Defensin 3: Human AMP (hBD-3) (GIINTLQKYYCRVRGGRCAVLSCLPKEEQIGKCSTRGRKCCRRKK; ends and bridges not checked; cysteine pairing not given here; UniProt P81534 23-67, looked up) [reference compound]
ΣFICavg [1]: 1

LEAP-2: Human AMP (MTPFWRGVSLRPIGASCRDDSECITRLCRKRRCSLSVAQE; ends and bridges not checked; cysteine pairing not given here; UniProt Q969E1 38-77, looked up) [reference compound]
ΣFICavg [1]: 1

Lysostaphin: lysin-like enzyme of Staphylococcus simulans with SH3-type binding domain; SEQ ID NO:7
difference in sterilizing activity/potency, blood compared to MHB [2]: 100 fold | ΣFICAVG (MRSA strain MW2 [3]; HuS): 0.13 | ΣFICMIN (MRSA strain MW2 [3]; HuS): 0.09 | ΣFICAVG (MRSA strain MW2 [3]; MHB): 0.5 | ΣFICMIN (MRSA strain MW2 [3]; MHB): 0.275 | concentration of each agent in PlySs2 (CF-301) + lysostaphin combination sterilizing at 24 hours (S. aureus strain MW2): 0.005 µg/mL | Minimal inhibitory concentration, MHB ([4]; MHB): 2 µg/mL | Fold decrease in MIC [4]: 512 | Fold decrease in MIC ([4]; listed as lysostaphin): 32 | Minimal inhibitory concentration, Human serum ([4]; human serum): 0.0039 µg/mL | Minimal inhibitory concentration, MHB [5]: 2 µg/mL | Fold decrease in MIC [5]: 512 | Minimal inhibitory concentration, Human serum [5]: 0.0039 µg/mL

LEAP-1: Human AMP (Hepcidin) (DTHFPICIFCCGCCHRSKCGMCCKT; ends and bridges not checked; cysteine pairing not given here; UniProt P81172 60-84, looked up) [reference compound]
ΣFICavg [1]: 0.75

Serum albumin (Rabbit, from serum): rabbit serum albumin
ΣFICavg [1]: ≤0.1

CCCCCCCCCC(=O)N[C@@H](Cc1c[nH]c2ccccc12)C(=O)N[C@H](CC(N)=O)C(=O)N[C@@H](CC(=O)O)C(=O)N[C@@H]1C(=O)NCC(=O)N[C@@H](CCCN)C(=O)N[C@@H](CC(=O)O)C(=O)N[C@H](C)C(=O)N[C@@H](CC(=O)O)C(=O)NCC(=O)N[C@H](CO)C(=O)N[C@@H]([C@H](C)CC(=O)O)C(=O)N[C@@H](CC(=O)c2ccccc2N)C(=O)O[C@@H]1C [Daptomycin, daptomycin, reference compound]
reduction in bacterial burden compared to vehicle treated controls (MRSA strain MW2 [6]): 2-3 log10 | ΣFICAVG (MRSA strain MW2 [3]; HuS): 0.292 | ΣFICMIN (MRSA strain MW2 [3]; HuS): 0.25 | ΣFICAVG (MRSA strain MW2 [3]; MHB): 0.63 | ΣFICMIN (MRSA strain MW2 [3]; MHB): 0.5 | MIC ([4]; MHB, read-out: Minimal inhibitory concentration, MHB): 0.5 µg/mL (≈ 0.309 µM) | MIC ([4]; human serum, read-out: Minimal inhibitory concentration, Human serum): 8 µg/mL (≈ 4.94 µM) | Fold decrease in MIC [4]: no | Minimal inhibitory concentration, MHB [5]: 0.5 µg/mL (≈ 0.309 µM) | Fold decrease in MIC [5]: no | Minimal inhibitory concentration, Human serum [5]: 8 µg/mL (≈ 4.94 µM)

Lysozyme (Hen egg-white): lysozyme, hen egg
ΣFICavg [1]: ≤0.563

CN[C@H](CC(C)C)C(=O)N[C@H]1C(=O)N[C@@H](CC(N)=O)C(=O)N[C@H]2C(=O)N[C@H]3C(=O)N[C@H](C(=O)N[C@H](C(=O)O)c4cc(O)cc(O)c4-c4cc3ccc4O)[C@H](O)c3ccc(c(Cl)c3)Oc3cc2cc(c3O[C@@H]2O[C@H](CO)[C@@H](O)[C@H](O)[C@H]2O[C@H]2C[C@](C)(N)[C@H](O)[C@H](C)O2)Oc2ccc(cc2Cl)[C@H]1O [Vancomycin, vancomycin, reference compound]
difference in sterilizing activity/potency, blood compared to MHB [2]: slightly decreased potency | ΣFICAVG (MRSA strain MW2 [3]; HuS): 0.5 | ΣFICMIN (MRSA strain MW2 [3]; HuS): 0.375 | ΣFICAVG (MRSA strain MW2 [3]; MHB): 0.63 | ΣFICMIN (MRSA strain MW2 [3]; MHB): 0.5 | Fold decrease in MIC [4]: no | Minimal inhibitory concentration, MHB [5]: 1 µg/mL (≈ 0.69 µM) | MIC ([5]; read-out: Minimal inhibitory concentration, Human serum): 1 µg/mL (≈ 0.69 µM) | MIC ([5]; read-out: Minimal inhibitory concentration, MHB): 1 µg/mL (≈ 0.69 µM) | Fold decrease in MIC [5]: no | Minimal inhibitory concentration, Human serum [5]: 1 µg/mL (≈ 0.69 µM)
